# Marks after values point to notes of the source that are not given here. *1 amine or outer side, *2 acyl side, *3 side chain or, on linkers, in order; H or OH if unused. Where a SMILES comes first, the peptide text is derived from it. [ ]: non-standard residue; d: D form. The star is where a group is joined. NMePhe(3-Me,β,β-Me2) = CN[C@H](C(=O)O)C(C)(C)c1cccc(C)c1; X1 = C/C(=C\[C@H](C(C)C)N(C)[*:1])C(=O)[*:2]; Tle = CC(C)(C)[C@H](N)C(=O)O; NHBn = c1ccc(CN*)cc1
# How the values were obtained:
# [1] = system: bovine microtubule-associated protein (MAP)-rich tubulin; assay type: biochemical
# Protocol: Tubulin Polymerization Assays. For in vitro tubulin polymerization assays, bovine microtubule-associated protein (MAP)-rich tubulin, PEM buffer [80 mM Na-PIPES (pH 6.9), 1 mM MgCl2, and 1 mM EGTA], and GTP are purchased from Cytoskeleton (Denver, Colo.). MAP-rich tubulin (final concentration 1.5 mg/ml) is dissolved in cold PEM buffer containing 1 mM GTP (GPEM) and centrifuged at 12,000×g for 10 min at 4° C. The tubulin solution (100 μl/well) is added rapidly to wells of a low-volume, 96-well plate already containing duplicate aliquots (10 μl) of test compounds in GPEM. […] Control wells contained the same final concentration of DMSO (0.3%). After initiation of the reaction, absorbance at 340 nm is measured every minute for 60 min at 24° C. using a SpectraMax Plus plate reader (Molecular Devices, Sunnyvale, Calif.).
# KB cells = test: cells; assay type: cell-based; details: 3 days, SRB
# Protocol: (§1) Cell Survival Assay: Standard Pharmacological Test Procedure. […] Compounds are incubated with cells for 3 days.
# KB85 = test: cells; assay type: cell-based; details: for IC50: 3 days, SRB
# Protocol: as §1
# KBV1 = test: cells; assay type: cell-based; details: for IC50: 3 days, SRB; for inhibition at 3 µM: KB-V1, 3000 nM
# Protocol: as §1
Molecule,Tubulin Polym. % inhibition at 0.5 uM ([1]; 0.5 uM),IC50 (KB cells),IC50 (KB85),IC50 (KBV1),Tubulin Polym. % inhibition at 0.3 uM [1],"IC50 (KB cells; Homo sapiens, KB, 72 h)",IC50 (KB85; 72 h),"IC50 (KBV1; Homo sapiens, KB-V1, 72 h)",inhibition at 3 µM (KBV1; Homo sapiens),KB85 % inhibition @ 3000 nM (KB85; 3000 nM),KBV1 % inhibition @ 3000 nM (KBV1; 3000 nM)
"3-hydroxy-N-methyl-L-valyl-N^1-[(1S,2E)-4-ethoxy-1-isopropyl-3-methyl-4-oxo-2-butenyl]-N^1,3-dimethyl-L-valinamide and 3-hydroxy-N,N-dimethyl-L-valyl-N^1-[(1S,2E)-4-ethoxy-1-isopropyl-3-methyl-4-oxo-2-butenyl]-N^1,3-dimethyl-L-valinamide [Example 61]",40*** %,151 nM,293 nM,> 3000 nM,–,–,–,–,–,–,–
"CN[C@@H](C(=O)N[C@H](C(=O)N(C)[C@H](/C=C(\C)C(=O)O)C(C)C)C(C)(C)C)C1(C)CCCc2ccccc21 (single isomer, unassigned) [Example 60]",–,–,–,–,94%,9.1 nM,17 nM,427 nM,–,–,–
"CN[C@H](C(=O)N[C@H](C(=O)N(C)[C@H](/C=C(\C)C(=O)N1CCOCC1)C(C)C)C(C)(C)C)C(C)(C)c1cccc(C)c1 [Example 1, N,β,β,3-Tetramethyl-L-phenylalanyl-N^1-[(1S,2E)-1-isopropyl-3-methyl-4-morpholin-4-yl-4-oxobut-2-enyl]-N^1,3-dimethyl-L-valinamide]",–,–,–,–,79%,19.5 nM,56 nM,1510 nM,–,–,–
"CN[C@H](C(=O)N[C@H](C(=O)N(C)[C@H](/C=C(\C)C(=O)N1CCOCC1)C(C)C)C(C)(C)C)C(C)(C)c1ccc(C)c(C)c1 [Example 2, N,β,β,3,4-Pentamethyl-L-phenylalanyl-N^1-[(1S,2E)-1-isopropyl-3-methyl-4-morpholin-4-yl-4-oxobut-2-enyl]-N^1,3-dimethyl-L-valinamide]",–,–,–,–,37%,34 nM,62 nM,162 nM,–,–,–
"CN[C@H](C(=O)N[C@H](C(=O)N(C)[C@H](/C=C(\C)C(=O)N1CCOCC1)C(C)C)C(C)(C)C)C(C)(C)c1cc(C)cc(C)c1 [Example 3, N,β,β,3,5-Pentamethyl-L-phenylalanyl-N^1-[(1S,2E)-1-isopropyl-3-methyl-4-morpholin-4-yl-4-oxobut-2-enyl]-N^1,3-dimethyl-L-valinamide]",–,–,–,–,51%,70 nM,176 nM,1760 nM,–,–,–
"CN[C@@H](C(=O)N[C@H](C(=O)N(C)[C@H](/C=C(\C)C(=O)N1CCOCC1)C(C)C)C(C)(C)C)C(C)(C)c1ccc(C)c(C)c1 [Example 4, N,β,β,3,4-Pentamethyl-D-phenylalanyl-N^1[(1S,2E)-1-isopropyl-3-methyl-4-morpholin-4-yl-4-oxobut-2-enyl]-N^1,3-dimethyl-L-valinamide]",–,–,–,–,61%,375 nM,536 nM,–,42%,–,–
"CN[C@@H](C(=O)N[C@H](C(=O)N(C)[C@H](/C=C(\C)C(=O)N1CCOCC1)C(C)C)C(C)(C)C)C(C)(C)c1cc(C)cc(C)c1 [Example 5, N,β,β,3,5-Pentamethyl-D-phenylalanyl-N^1-[(1S,2E)-1-isopropyl-3-methyl-4-morpholin-4-yl-4-oxobut-2-enyl]-N^1,3-dimethyl-L-valinamide]",–,–,–,–,57%,207 nM,459 nM,–,40%,–,–
"CN[C@H](C(=O)N[C@H](C(=O)N(C)[C@H](/C=C(\C)C(=O)N1CCN(C)CC1)C(C)C)C(C)(C)C)C(C)(C)c1cccc(C)c1.O=C(O)C(F)(F)F [Example 6, N,β,β,3-Tetramethyl-L-phenylalanyl-N^1-[(1S,2E)-1-isopropyl-3-methyl-4-(4-methylpiperazin-1-yl)-4-oxobut-2-enyl]-N^1,3-dimethyl-L-valinamide trifluoroacetic acid salt]",–,–,–,–,64%,64 nM,123 nM,–,33%,–,–
"CN[C@H](C(=O)N[C@H](C(=O)N(C)[C@H](/C=C(\C)C(=O)N1CCN(C)CC1)C(C)C)C(C)(C)C)C(C)(C)c1ccc(C)c(C)c1 [Example 7, N,β,β,3,4-Pentamethyl-L-phenylalanyl-N^1-[(1S,2E)-1-isopropyl-3-methyl-4-(4-methylpiperazin-1-yl)-4-oxobut-2-enyl]-N^1,3-dimethyl-L-valinamide]",–,–,–,–,32%,47 nM,68 nM,2190 nM,–,–,–
"CN[C@H](C(=O)N[C@H](C(=O)N(C)[C@H](/C=C(\C)C(=O)N1CCN(C)CC1)C(C)C)C(C)(C)C)C(C)(C)c1cc(C)cc(C)c1 [Example 8, N,β,β,3,5-Pentamethyl-L-phenylalanyl-N^1-[(1S,2E)-1-isopropyl-3-methyl-4-(4-methylpiperazin-1-yl)-4-oxobut-2-enyl]-N^1,3-dimethyl-L-valinamide]",–,–,–,–,68%,35 nM,56 nM,1620 nM,–,–,–
"CN[C@H](C(=O)N[C@H](C(=O)N(C)[C@H](/C=C(\C)C(=O)N1CCC[C@@H]1C(=O)N1CCC[C@@H]1C(=O)NCc1ccccc1)C(C)C)C(C)(C)C)C(C)(C)c1cccc(C)c1.O=C(O)C(F)(F)F [Example 9, 1-{(2E,4S)-2,5-Dimethyl-4-[methyl(N,β,β,3-tetramethyl-L-phenylalanyl-3-methyl-L-valyl)amino]hex-2-enoyl}-D-prolyl-N-benzyl-D-prolinamide trifluoroacetic acid salt] (H-[NMePhe(3-Me,β,β-Me2)][Tle][X1][dP][dP]-NHBn)",–,–,–,–,56%,1.4 nM,23 nM,–,21%,–,–
"CN[C@H](C(=O)N[C@H](C(=O)N(C)[C@H](/C=C(\C)C(=O)N1CCC[C@H]1C(=O)N1CCC[C@H]1C(=O)NCc1ccccc1)C(C)C)C(C)(C)C)C(C)(C)c1ccc(C)c(C)c1 [Example 10, 1-{(2E,4S)-2,5-Dimethyl-4-[methyl(N,β,β,3,4-pentamethyl-L-phenylalanyl-3-methyl-L-valyl)amino]hex-2-enoyl}-L-prolyl-N-benzyl-L-prolinamide]",–,–,–,–,42%,1.5 nM,19.7 nM,2140 nM,–,–,–
"CN[C@H](C(=O)N[C@H](C(=O)N(C)[C@H](/C=C(\C)C(=O)N1CCC[C@H]1C(=O)N1CCC[C@H]1C(=O)NCc1ccccc1)C(C)C)C(C)(C)C)C(C)(C)c1cc(C)cc(C)c1 [Example 11, 1-{(2E,4S)-2,5-Dimethyl-4-[methyl(N,β,β,3,5-pentamethyl-L-phenylalanyl-3-methyl-L-valyl)amino]hex-2-enoyl}-L-prolyl-N-benzyl-L-prolinamide]",–,–,–,–,41%,0.56 nM,24 nM,–,8%,–,–
"CN[C@@H](C(=O)N[C@H](C(=O)N(C)[C@H](/C=C(\C)C(=O)O)C(C)C)C(C)(C)C)C12CC3CC(CC(C3)C1)C2 [Example 56, (2E,4S)-4-[{N-[(2R)-2-(1-adamantyl)-2-(methylamino)ethanoyl]-3-methyl-L-valyl}(methyl)amino]-2,5-dimethyl-2-hexenoic acid]",–,–,–,–,–,468 nM,575 nM,–,11%,–,–
"Ethyl (E,4S)-4-[((2S)-2-{[(2S)-2-azido-3-methyl-3-phenylbutanoyl]amino}-3,3 -dimethylbutanoyl)(methyl)amino]-2,5-dimethyl-2-hexenoate and ethyl (E,4S)-4-[((2S)-2-{[(2R)-2-azido-3-methyl-3-phenylbutanoyl]amino}-3,3-dimethylbutanoyl)(methyl)amino]-2,5-dimethyl-2-hexenoate [Example 93]",–,2510 nM,–,–,–,–,–,–,–,30%,30%

# From patent US7390910B2, “Compounds for treating tumors” (priority 2003, dated 2008)
